Experimental data from patent publication US20240116910A1, “Heterocycles as WIP1 Inhibitors” (PMV Pharmaceuticals, Inc., priority 2022, published 2024).

Target: recombinant His-tag Wip1(2-420) protein (amino acids #2-420) (Homo sapiens (Human), UniProt O15297)
Assay: Wip1(2-420) phosphatase enzyme FDP assay
Type: biochemical
Details: fluorescein diphosphate (FDP) substrate, RT 2 hours, fluorescence Ex485/Em535; read-out: WIP1 (Truncated 2-420) FDP Assay: IC50
Experimental: The Human Wip1 (2-420, aa 2-420) or Wip1 full length (aa 1-605) DNA sequence was codon optimized and synthesized by Genscript for insect cell expression. The open reading frame of Wip1(2-420) with a N-terminal-His6 affinity tag followed by a TEV cleavage site was subcloned sites into the pFastBac1 expression vector. The recombinant bacmid DNA was transfected in Sf9 insect cells for baculovirus production. After 72 hours infection, the Sf9 cells were harvested by centrifugation and resuspended in lysis buffer containing 50 mM Tris/HCl, pH 8.0, 500 mM NaCl, 20% glycerol, Benzonase 0.5% CHAPS and Roche cOmplete™ EDTA free protease inhibitors. Cells were disrupted with microfluidizer and the debris was removed by centrifugation at 185,000 g for 1 hour. The supernatant was subjected to HisTrap FF for affinity purification. Proteins were eluted with a linear gradient of 0-500 mM imidazole in HisTrap buffer containing 50 mM Tris/HCl, pH 8.0, 500 mM NaCl and 20% glycerol, 0.05% CHAPS. The eluted protein was dialyzed against dialysis buffer (20 mM MES, 100 mM NaCl, 20% glycerol, 0.5 mM TCEP, 0.05% CHAPS) followed purification via HiTrap SP HP column. The protein was eluted with a gradient of 100 mM-2 M NaCl in dialysis buffer. His6-[…] was finally concentrated and loaded onto a size-exclusion column (NiLoad 16/600 Superdex 200 pg, GE Healthcare) pre-equilibrated with 50 mM MOPS (pH 7.5), 200 mM NaCl, 20% glycerol, 1 mM TCEP, 0.05% CHAPS and 0.1 mM EGTA. The peak fractions containing purified Nis6-Wip1(2-420) were pooled and concentrated to 1.0 mg/mL and flash frozen at −80° C.
Wip1 Length and Wip1(2-420) Phosphatase Enzyme FDP Assays.
Test compounds (252 mM stock in DMSO) were diluted 3 folds in series in DMSO and 1.2 μl per well were added into 384-well polypropylene black plates (Nunc). Twelve μl per well of Assay Buffer (100 mM NaCl, 50 mM MOPS, pH 7.5, 0.8 mM CHAPS, 0.1 mM EGTA, 30 mM MgCl2, 0.3 mM TCEP, 0.2 mg/mL BSA) was added followed by […] per well of 50.4 nM recombinant His-tag Wip1 full length protein (amino acids #1-605) or recombinant His-tag Wip1(2-420) protein (amino acids #2-420) in Assay Buffer and the plate was incubated at RT (22° C.) for 5 min. Ten mM of fluorescein diphosphate (FDP) in DMSO was diluted to […] in Assay Buffer and […] per well was added to the plate and incubated at RT (22° C.) for 2 hours. […] per well of 64.1 mM EDTA in water were added to stop the enzyme reaction. The plate was centrifuged at 1,200 rpm (Eppendorf 5810R Plate centrifuge) for 1 minute and fluorescence intensity (Ex485/Em535) was measured on Perkin Elmer Victor Reader. EC50 values were calculated using either Prism (GraphPad) or ActivityBase software (IDBS), The IC50 results are provided in Table M.

Sequence of recombinant His-tag Wip1(2-420) protein (amino acids #2-420) (O15297 2-420): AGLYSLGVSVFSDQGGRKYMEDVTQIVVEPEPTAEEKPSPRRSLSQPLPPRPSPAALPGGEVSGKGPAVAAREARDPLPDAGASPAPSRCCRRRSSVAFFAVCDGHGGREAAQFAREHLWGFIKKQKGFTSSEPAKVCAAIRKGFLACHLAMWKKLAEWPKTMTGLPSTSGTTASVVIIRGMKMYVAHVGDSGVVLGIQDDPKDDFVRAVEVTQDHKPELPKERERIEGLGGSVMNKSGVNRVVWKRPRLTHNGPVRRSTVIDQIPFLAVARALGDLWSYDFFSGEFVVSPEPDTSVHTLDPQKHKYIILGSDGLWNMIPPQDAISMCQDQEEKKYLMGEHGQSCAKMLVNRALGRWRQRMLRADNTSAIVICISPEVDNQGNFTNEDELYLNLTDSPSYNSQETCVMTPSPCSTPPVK

Compound | IC50 [nM]
Cc1ncc(Cl)cc1N[C@@H](C)c1ccc(C(=O)N[C@@H](CC2CCCC2)C(=O)Nc2ccc3cnccc3c2)s1 [Compound 195, (2S)-2-({5-[(1S)-1-[(5-chloro-2-methylpyridin-3-yl)amino]ethyl]thiophen-2-yl}formamido)-3-cyclopentyl-N-(isoquinolin-6-yl)propanamide] | 3
Cc1ncc(Cl)cc1N[C@@H](C)c1ccc(C(=O)N[C@@H](C(=O)NC23CC(C2)C3)C(C)(C)C)s1 [Compound 247, (2R)-N-{bicyclo[1.1.1]pentan-1-yl}-2-({5-[(1S)-1-[(5-chloro-2-methylpyridin-3-yl)amino]ethyl]thiophen-2-yl}formamido)-3,3-dimethylbutanamide] | > 10000
C[C@H](Nc1cc(Cl)cnc1C(=O)N(C)C)c1ccc(C(=O)N[C@@H](CC2CCCC2)C(=O)NC2CC2)s1 [Compound 205, 5-chloro-3-{[(1S)-1-(5-{[(1S)-2-cyclopentyl-1-(cyclopropylcarbamoyl)ethyl]carbamoyl}thiophen-2-yl)ethyl]amino}-N,N-dimethylpyridine-2-carboxamide] | 29
Cc1ncc(Cl)cc1NC(Cc1ccncc1)c1ccc(C(=O)N[C@@H](CC2CCCC2)C(=O)NC2CC2)s1 (stereo partly drawn) [Compound 130, (2S)-2-[(5-{1-[(5-chloro-2-methylpyridin-3-yl)amino]-2-(pyridin-4-yl)ethyl}thiophen-2-yl)formamido]-3-cyclopentyl-N-cyclopropylpropanamide] | 22
Cc1ncc(Cl)cc1N[C@@H](C)c1ccc(C(=O)N[C@@H](CC2CCCC2)C(=O)Nc2ccc3ncccc3c2)s1 [Compound 243, (2S)-2-({5-[(1S)-1-[(5-chloro-2-methylpyridin-3-yl)amino]ethyl]thiophen-2-yl}formamido)-3-cyclopentyl-N-(quinolin-6-yl)propanamide] | 4
COc1ncc(Cl)cc1N[C@H](C)c1ccc(C(=O)N[C@@H](CC2CCCC2)C(=O)NC23CC(C2)C3)s1 [Compound 61, (2S)-N-{bicyclo[1.1.1]pentan-1-yl}-2-({5-[(1R)-1-[(5-chloro-2-methoxypyridin-3-yl)amino]ethyl]thiophen-2-yl}formamido)-3-cyclopentylpropanamide] | 500
Cc1cc(NC(=O)[C@H](CC2CCCCC2)NC(=O)c2ccc([C@H](C)Nc3cc(Cl)cnc3C)s2)ccn1 [Compound 252, (2S)-2-({5-[(1S)-1-[(5-chloro-2-methylpyridin-3-yl)amino]ethyl]thiophen-2-yl}formamido)-3-cyclohexyl-N-(2-methylpyridin-4-yl)propanamide] | 8
Cc1ncc(Cl)cc1N[C@@H](C)c1ccc(C(=O)N[C@@H](CC2CCCC2)C(=O)N[C@H]2C[C@H](C)C2)s1 [Compound 114, (2S)-2-({5-[(1S)-1-[(5-chloro-2-methylpyridin-3-yl)amino]ethyl]thiophen-2-yl}formamido)-3-cyclopentyl-N-[(1s,3r)-3-methylcyclobutyl]propanamide] | 6
COCCOCCNC(=O)[C@H](CC1CCCC1)NC(=O)c1ccc([C@H](C)Nc2cc(Cl)cnc2C)s1 [Compound 204, (2S)-2-({5-[(1S)-1-[(5-chloro-2-methylpyridin-3-yl)amino]ethyl]thiophen-2-yl}formamido)-3-cyclopentyl-N-[2-(2-methoxyethoxy)ethyl]propanamide] | 102
COC(=O)CNC(=O)[C@H](CC1CCCC1)NC(=O)c1ccc([C@H](C)Nc2cc(Cl)cnc2C)s1 [Compound 91, methyl 2-[(2S)-2-({5-[(1S)-1-[(5-chloro-2-methylpyridin-3-yl)amino]ethyl]thiophen-2-yl}formamido)-3-cyclopentylpropanamido]acetate] | 19
C[C@H](Nc1cc(Cl)nc2ccnn12)c1ccc(C(=O)N[C@@H](CC2CCCC2)C(=O)NC2CC2)s1 [Compound 260, (2S)-2-({5-[(1S)-1-({5-chloropyrazolo[1,5-a]pyrimidin-7-yl}amino)ethyl]thiophen-2-yl}formamido)-3-cyclopentyl-N-cyclopropylpropanamide] | 210
Cc1cccc(NC(=O)[C@H](CC2CCCC2)NC(=O)c2ccc([C@H](C)Nc3cc(Cl)cnc3C)s2)n1 [Compound 86] | 8
Cc1ncc(Cl)cc1N[C@@H](C)c1ccc(C(=O)N[C@@H](CC2CCCC2)C(=O)NC2CCC2C)s1 (stereo partly drawn) [Compound 88, (2S)-2-({5-[(1S)-1-[(5-chloro-2-methylpyridin-3-yl)amino]ethyl]thiophen-2-yl}formamido)-3-cyclopentyl-N-(2-methylcyclobutyl)propanamide] | 6
Cc1ncc(Cl)cc1N[C@@H](C)c1ccc(C(=O)N[C@H](C(=O)NC2CC2)C2CCCCC2)s1 [Compound 174, (2S)-2-({5-[(1S)-1-[(5-chloro-2-methylpyridin-3-yl)amino]ethyl]thiophen-2-yl}formamido)-2-cyclohexyl-N-cyclopropylacetamide] | 37
CCNC(=O)[C@H](CC1CCCCC1)NC(=O)c1ccc([C@H](C)Nc2cc(Cl)cnc2C)s1 [Compound 264, (2S)-2-({5-[(1S)-1-[(5-chloro-2-methylpyridin-3-yl)amino]ethyl]thiophen-2-yl}formamido)-3-cyclohexyl-N-ethylpropanamide] | 7
Cc1ncc(Cl)cc1N[C@@H](c1ccc(C(=O)N[C@@H](CC2CCCC2)C(=O)NC23CC(C2)C3)s1)C(F)(F)F [Compound 186, (2S)-N-{bicyclo[1.1.1]pentan-1-yl}-2-({5-[(1R)-1-[(5-chloro-2-methylpyridin-3-yl)amino]-2,2,2-trifluoroethyl]thiophen-2-yl}formamido)-3-cyclopentylpropanamide] | 195
Cc1ncc(Cl)cc1N[C@@H](C)c1ccc(C(=O)N[C@H](CC2CCCC2)C(=O)Nc2ccnc(Cl)c2)s1 [Compound 142, (2R)-2-({5-[(1S)-1-[(5-chloro-2-methylpyridin-3-yl)amino]ethyl]thiophen-2-yl}formamido)-N-(2-chloropyridin-4-yl)-3-cyclopentylpropanamide] | 2500
Cc1ncc(Cl)cc1N[C@H](Cn1cccn1)c1ccc(C(=O)N[C@@H](CC2CCCC2)C(=O)NC2CC2)s1 [Compound 165, (2S)-2-({5-[(1R)-1-[(5-chloro-2-methylpyridin-3-yl)amino]-2-(1H-pyrazol-1-yl)ethyl]thiophen-2-yl}formamido)-3-cyclopentyl-N-cyclopropylpropanamide] | 378
C[C@H](c1ccc(C(=O)N[C@@H](CC2CCCC2)C(=O)NC23CC(C2)C3)s1)N(C)c1cncc(Cl)c1 [Compound 97, (2S)-N-{bicyclo[1.1.1]pentan-1-yl}-2-({5-[(1R)-1-[(5-chloropyridin-3-yl)(methyl)amino]ethyl]thiophen-2-yl}formamido)-3-cyclopentylpropanamide] | 11
COc1ccc(NC(=O)[C@H](CC2CCCC2)NC(=O)c2ccc([C@H](C)Nc3cc(Cl)cnc3C)s2)cn1 [Compound 276, (2S)-2-({5-[(1S)-1-[(5-chloro-2-methylpyridin-3-yl)amino]ethyl]thiophen-2-yl}formamido)-3-cyclopentyl-N-(6-methoxypyridin-3-yl)propanamide] | 5
C[C@@H](Nc1cc(Cl)cnc1-c1cccnc1)c1ccc(C(=O)N[C@@H](CC2CCCC2)C(=O)NC2CC2)s1 [Compound 233, (2S)-2-({5-[(1R)-1-({5-chloro-[2,3′-bipyridin]-3-yl}amino)ethyl]thiophen-2-yl}formamido)-3-cyclopentyl-N-cyclopropylpropanamide] | 293
Cc1ncc(Cl)cc1N[C@@H](C)c1ccc(C(=O)N[C@@H](CC2CCCCC2)C(=O)NC2CC2)s1 [Compound 107, (2S)-2-({5-[(1S)-1-[(5-chloro-2-methylpyridin-3-yl)amino]ethyl]thiophen-2-yl}formamido)-3-cyclohexyl-N-cyclopropylpropanamide] | 4
